Experimental data from the supplement of paper PMC10307832.

Assays:
Experiment in all cases: relative viability (nuclei count vs DMSO), 5 days (fraction); higher = more cells survive
[1] = compound: CC1(C)CNc2cc(NC(=O)c3cccnc3NCc3ccncc3)ccc21 [Motesanib] + CS(=O)(=O)CCNCc1ccc(-c2ccc3ncnc(Nc4ccc(OCc5cccc(F)c5)c(Cl)c4)c3c2)o1 [Lapatinib] (partner 2 µM)
Outline: (§1)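 After 5 days of treatment, lung cancer cells in 1536-well plates were fixed and stained in a single step (final 0.05% Triton X-100, 1% formaldehyde, 1 ug/ml Hoechst) and their nuclei counted on 4× images. Treatment had been applied by pin tool the day after seeding as one drug alone or as a fixed anchor-drug dose with five library-drug doses (not always all listed) in √10 steps. Relative viability is the nuclei count of treated wells divided by that of vehicle wells, and values are medians of duplicate plates.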

[2] = compound: C[C@@]1(C(=O)Nc2ccc(F)nc2)CCCN1c1nc(Nc2cc(C3CC3)n[nH]2)c2cccn2n1 + Cc1cc(Nc2cc(N3CCN(C)CC3)nc(Sc3ccc(NC(=O)C4CC4)cc3)n2)n[nH]1 [Tozasertib] (partner 0.1 µM)
Outline: as §1

[3] = compound: C[C@@]1(C(=O)Nc2ccc(F)nc2)CCCN1c1nc(Nc2cc(C3CC3)n[nH]2)c2cccn2n1 + Cc1nc(NC(=O)N2CCC[C@H]2C(N)=O)sc1-c1ccnc(C(C)(C)C(F)(F)F)c1 [Alpelisib] (partner 2 µM)
Outline: as §1

[4] = compound: C[C@@]1(C(=O)Nc2ccc(F)nc2)CCCN1c1nc(Nc2cc(C3CC3)n[nH]2)c2cccn2n1 + O=C(c1cc(Cc2n[nH]c(=O)c3ccccc23)ccc1F)N1CCN(C(=O)C2CC2)CC1 [Olaparib] (partner 8 µM)
Outline: as §1

Row | Cell Line | relative viability ([1]; first compound 0.01 µM) | relative viability ([1]; first compound 0.03162 µM) | relative viability ([1]; first compound 0.1 µM) | relative viability ([1]; first compound 0.3162 µM) | relative viability ([1]; first compound 1 µM) | relative viability ([2]; first compound 0.04 µM) | relative viability ([2]; first compound 0.1265 µM) | relative viability ([2]; first compound 0.4 µM) | relative viability ([2]; first compound 1.265 µM) | relative viability ([3]; first compound 0.04 µM) | relative viability ([3]; first compound 0.1265 µM) | relative viability ([3]; first compound 0.4 µM) | relative viability ([3]; first compound 1.265 µM) | relative viability ([4]; first compound 0.04 µM) | relative viability ([4]; first compound 0.1265 µM) | relative viability ([4]; first compound 0.4 µM) | relative viability ([4]; first compound 1.265 µM)
1 | EKVX | 0.201 | 0.21 | 0.225 | 0.204 | 0.246 | 0.363 | 0.349 | 0.259 | 0.28 | 0.837 | 0.672 | 0.581 | 0.666 | 0.874 | 0.644 | 0.635 | 0.735
2 | EMC-BAC-2 | 0.884 | 0.881 | 0.847 | 0.926 | 0.875 | 0.25 | 0.277 | 0.215 | 0.201 | 0.634 | 0.664 | 0.613 | 0.818 | 0.406 | 0.368 | 0.312 | 0.334
3 | EPLC-272H | 1 | 0.943 | 0.847 | 0.925 | 0.898 | 0.182 | – | 0.178 | 0.287 | 1.03 | 0.876 | 0.719 | 1.1 | 0.792 | 0.513 | 0.489 | 0.571
4 | H3255 | 0.228 | 0.276 | 0.224 | 0.268 | 0.254 | 0.695 | 0.781 | 0.656 | 0.582 | 0.713 | 0.771 | 0.514 | 0.699 | 0.638 | 0.643 | 0.523 | 0.548
5 | HARA | 0.698 | 0.668 | 0.77 | 0.742 | 0.804 | 0.367 | 0.103 | 0.0758 | 0.79 | 0.73 | 0.681 | 0.569 | 0.697 | 0.81 | 0.74 | 0.59 | 0.656
